Measurements published in US4225619A, “Substituted fluoracylresorcinols” (Boehringer Ingelheim GmBH, priority 1976, dated 1980).
In brackets after ≈: the same amount, converted by molar mass. Where two headings read alike, the source gives them in different places.

What was measured:
[1] = tested on: Staphylococcus aureus SG 511; experiment: Agar diffusion test (hole-test); type: cell-based; settings: SG511, 18-20 hours at 37° C., read-out: MIC, A.D.T., Staphylococcus aureus SG 511
Procedure: (§1) The inhibitory effect on bacteria and fungi was examined by the serial dilution test and the agar diffusion test (hole-test). As bacteria were used: Staphylococcus aureus SG 511, Streptococcus Aronson, Streptococcus pyogenes At CC 86 68; as fungi: Candida albicans AT CC 10231, Trichophyton mentagrophytes AT CC 9129 and Aspergillus niger.
1. Meat extract agar: for St. aureus SG 511
(§2) The age of the primary cultures is 24 hours for bacteria and 14 days for fungi. The standardization of the suspension of microorganisms is effected using a photometer according to Eppendorf (test tube .phi.14 mm, filter 546 nm) and a suspension for comparison consisting of barium sulfate, this suspension being created by addition of 3.0 ml of 1% barium chloride solution to 97 ml of 1% sulfuric acid. After the standardization St. aureus SG 511 was diluted 1:1000 and Sc. pyogenes and Aronson 1:100 by means of sodium chloride solution. The fungi were used in an undiluted state.
(§3) 40 mgm of the substance were put into a 10 ml measuring flask and filled up to the mark with the solvent (corresponds to a dilution of 1:250=4000 μg/ml).
(§4) The dilutions to the concentrations under test were effected with distilled water or the respective solvent.
(§5) 19 ml of the nutrient medium were filled into sterile Petri dishes of a diameter of 8 cm and dried. Subsequently the agar plates were charged with 4 ml of seed agar. 100 ml of seed agar contain 1.25 ml of the suspension of microorganisms, an agar plate thus containing 0.05 ml of the suspension of microorganisms. After solidification of the agar, 5 holes of a diameter of 5 mm were punched into the plates and filled with 0.05 ml of the correspondingly concentrated substance solution.
(§6) Control tests merely using the solvent are to be carried out simultaneously.
(§7) Bacteria were incubated at 37° C. for 18-20 hours and fungi at 27° C. for 7 days.
(§8) The diameter of the area of inhibition in mm was measured after having deducted the diameter of the hole.

[2] = tested on: Staphylococcus aureus SG 511; experiment: Serial dilution test; type: cell-based; settings: Staphylococcus aureus, SG511, 18-20 hours at 37° C., read-out: MIC, S.D.T., Staphylococcus aureus SG 511
Procedure: as §1
1. Meat extract broth: for St. aureus SG 511
(§9) The age of the primary cultures is 24 hours for bacteria and 14 days for fungi. The standardization of the suspension of microorganisms is effected using a photometer according to Eppendorf (test tube .phi.14 mm, filter 546 nm) and a suspension for comparison consisting of barium sulfate, this suspension being created by adition of 3.0 ml of 1% barium chloride solution to 97 ml of 1% sulfuric acid. After the standardization the bacteria were further diluted to a concentration of 1:1000 by means of sodium chloride solution, the fungi were used in an undiluted state.
(§10) 40 mgm of the substance were put into a 10 ml measuring flask and filled up to the mark with the solvent (corresponds to a dilution of 1:250=4000 μg/ml). The further dilution series was standardized with distilled water or the respective solvent and the following substance concentrations were prepared: 1000; 250; 62.5 μg/ml.
(§11) The tubes were filled with 4.9 ml of the corresponding liquid nutrient medium. Then 0.1 ml of the substance dilution prepared above was added to each tube, so that the mentioned final concentrations were present. Finally each tube was inoculated with 0.1 ml of the standardized suspension of microorganisms. Control tests merely using the solvent are to be carried out simultaneously.
as §7
(§12) The measurement is carried out macroscopically defining the minimal inhibitory concentration (the lowest still microbiostatically effective concentration).

[3] = tested on: Streptococcus Aronson; experiment: Agar diffusion test (hole-test); type: cell-based; settings: 18-20 hours at 37° C., read-out: MIC, A.D.T., Streptococcus Aronson
Procedure: as §1
(§13) 2. Glucose agar: for Sc. Aronson and St. pyogenes Recipe see meat extract agar. After sterilization 1 weight percent of glucose is added as a sterile 50% solution.
as §2, §3, §4, §5, §6, §7, §8

[4] = tested on: Streptococcus pyogenes At CC 86 68; experiment: Agar diffusion test (hole-test); type: cell-based; settings: ATCC8668, 18-20 hours at 37° C., read-out: MIC, A.D.T., Streptococcus pyogenes
Procedure: as §1, §13, §2, §3, §4, §5, §6, §7, §8

[5] = tested on: Streptococcus Aronson; experiment: Serial dilution test; type: cell-based; settings: Streptococcus, 18-20 hours at 37° C., read-out: MIC, S.D.T., Streptococcus Aronson
Procedure: as §1
(§14) 2. Glucose broth: for Sc. Aronson and St. pyogenes Recipe see meat extract broth. After sterilization 1 weight percent of glucose is added as a sterile 50% solution.
as §9, §10, §11, §7, §12

[6] = tested on: Streptococcus pyogenes At CC 86 68; experiment: Serial dilution test; type: cell-based; settings: Streptococcus pyogenes, ATCC8668, 18-20 hours at 37° C., read-out: MIC, S.D.T., Streptococcus pyogenes
Procedure: as §1, §14, §9, §10, §11, §7, §12

[7] = tested on: Corynebacterium acnes; experiment: Serial dilution test for Corynebacterium acnes; type: cell-based; settings: Cutibacterium acnes, 37° C. for 48 hours, read-out: MIC, S.D.T., Corynebacterium acnes
Procedure: (§15) Serial dilution test for Corynebacterium acnes and Pityrosporum ovale Nutrient medium
(§16) For Corynebacterium acnes: thioglycolate-broth for Pityrosporum ovale: Littmann's broth, 5 ml per tube.
(§17) Suspension of microorganisms in 0.9% sodium chloride solution, standardized using a photometer according to Eppendorf by means of a suspension for comparison consisting of barium sulfate, for Corynebacterium acnes in a dilution of 1:100, for Pityrosporum ovale in an undiluted state. 0.1 ml of the suspensions was used per test tube. Dimethyl sulfoxide served as a solvent for the substances.
(§18) The suspension with Corynebacteria acnes was incubated at 37° C. for 48 hours, the suspension of Pityrosporum ovale at 27° C. for 7 days. The reading was effected by macroscopic evaluation of the growth of microorganisms and registration of the minimal inhibitory concentration.

[8] = tested on: HeLa-cell culture; experiment: Inhibition of HeLa cell cultures; type: cell-based; settings: Homo sapiens, 72 h, 37° C. for 3 days, 5% carbon dioxide
Procedure: Measurement of the inhibition of cell cultures
HeLa-cell culture was treated with trypsin and adjusted to a cell number of 150,000 cells/ml of fresh medium. The substance was always dissolved in the same quantity of dimethyl sulfoxide and then further diluted with growth medium. 0.1 ml of the substance-dilutions were added to each well of microtiter plates and then 0.2 ml of cell suspension were added (4 wells per dilution). Several growth controls containing 0.1 ml of growth medium instead of 0.1 ml of substance dilution were put up. After careful mixing, the cultures were incubated at 37° C. for 3 days in a 5% carbon dioxide atmosphere. The reading was effected in comparison with these controls. The results were given as the percentage of the deficiency and degeneration compared to the growth control. […] The statements are referred to μg of substance per ml of total medium.

[9] = Acute toxicity in mice (LD50); settings: mouse, in vivo, death within 14 days
Procedure: The acute toxicity was determined with mice. The LD50, the dose leading to the death of 50% of the animals within 14 days, was calculated.

[10] = tested on: skin; experiment: Compatibility on the skin under occlusion; type: in vivo; settings: cream containing 10%; over 24 hours under occlusion
[11] = tested on: Aspergillus niger; experiment: Agar diffusion test (hole-test); type: cell-based; settings: 168 h, 27° C. for 7 days, read-out: MIC, A.D.T., Aspergillus niger
Procedure: as §1
(§19) 3. Sabouraud agar: for C. alb., Trich. ment., A. niger
as §2, §3, §4, §5, §6, §7, §8

[12] = tested on: Candida albicans AT CC 10231; experiment: Agar diffusion test (hole-test); type: cell-based; settings: ATCC10231, 168 h, 27° C. for 7 days, read-out: MIC, A.D.T., Candida albicans
Procedure: as §1, §19, §2, §3, §4, §5, §6, §7, §8

[13] = tested on: Trichophyton mentagrophytes AT CC 9129; experiment: Agar diffusion test (hole-test); type: cell-based; settings: ATCC9129, 168 h, 27° C. for 7 days, read-out: MIC, A.D.T., Trichophyton mentagrophytes
Procedure: as §1, §19, §2, §3, §4, §5, §6, §7, §8

[14] = tested on: Aspergillus niger; experiment: Serial dilution test; type: cell-based; settings: Aspergillus niger, 168 h, 27° C. for 7 days, read-out: MIC, S.D.T., Aspergillus niger
Procedure: as §1
(§20) 3. Sabouraud broth: for C. alb., Trich. mnt., A. niger
as §9, §10, §11, §7, §12

[15] = tested on: Candida albicans AT CC 10231; experiment: Serial dilution test; type: cell-based; settings: Candida albicans, ATCC10231, 168 h, 27° C. for 7 days, read-out: MIC, S.D.T., Candida albicans
Procedure: as §1, §20, §9, §10, §11, §7, §12

[16] = tested on: Trichophyton mentagrophytes AT CC 9129; experiment: Serial dilution test; type: cell-based; settings: ATCC9129, 168 h, 27° C. for 7 days, read-out: MIC, S.D.T., Trichophyton mentagrophytes
Procedure: as §1, §20, §9, §10, §11, §7, §12

[17] = tested on: Pityrosporum ovale CBS 1878; experiment: Agar diffusion test for Pityrosporum ovale CBS 1878; type: cell-based; settings: Malassezia furfur, CBS1878, 168 h, 7 days at 27° C., read-out: MIC, A.D.T., Pityrosporum ovale
Procedure: Agar diffusion test for Pityrosporum ovale CBS 1878 Nutrient medium
Littmann's agar, 23 ml per Petri dish, diameter of dish 100 mm.
Suspension of microorganisms in 0.9% sodium chloride solution, standardized using a photometer according to Eppendorf by means of a suspension for comparison consisting of barium sulfate. 0.05 ml per plate were used. The test substances were dissolved in dimethyl sulfoxide. The incubation time was 7 days at 27° C.; the area of inhibition in mm was measured, 0.05 ml of the solution of the substance were used for each punch-hole of a diameter of 6 mm. The results of these tests are recorded in the following tables 1 and 2: […]

[18] = tested on: Pityrosporum ovale; experiment: Serial dilution test for Pityrosporum ovale; type: cell-based; settings: Malassezia furfur, 168 h, 27° C. for 7 days, read-out: MIC, S.D.T., Pityrosporum ovale
Procedure: as §15, §16, §17, §18

[19] = ip, read-out: LD50 in the mouse, i.p.
[20] = po, read-out: LD50 in the mouse, p.o.
[21] = sc, read-out: LD50 in the mouse, s.c.

Structure (SMILES)	MIC [1] [µg/mL]	MIC [2] [µg/mL]	MIC [3] [µg/mL]	MIC [4] [µg/mL]	MIC [5] [µg/mL]	MIC [6] [µg/mL]	MIC [7] [µg/mL]	LD50 at 336 h [9, 19] [mg/kg]	LD50 at 336 h [9, 20] [mg/kg]	LD50 at 336 h [9, 21] [mg/kg]	other results
CCCCCCc1cc(C(=O)C(F)(F)F)c(O)cc1O [Compound E, 2,4-Dihydroxy-5-n-hexyl-trifluoroacetophenone]	≤ 15.6	1.25 (≈ 4.31 µM)	≤ 15.6	≤ 15.6	0.31 (≈ 1.07 µM)	0.31 (≈ 1.07 µM)	0.08 (≈ 0.276 µM)	82	> 3200	> 4000	IC50 ([8]; read-out: ED50, HeLa cell culture): 5.81 µg/mL (≈ 20 µM); minimal effective concentration ([8]; read-out: Minimal inhibitory concentration, HeLa cell culture): 0.78 µg/mL; compatibility on the skin [10]: tolerated without irritation
CC(C)c1cc(C(=O)C(F)(F)F)c(O)c(Cc2c(O)c(C(=O)C(F)(F)F)cc(C(C)C)c2O)c1O [Compound Q, Methylene-bis-(2,6-dihydroxy-3-isopropyl-5-trifluoro-acetyl)-benzene]	≤ 15.6	0.08 (≈ 0.157 µM)	≤ 15.6	≤ 15.6	1.25 (≈ 2.46 µM)	0.001 (≈ 0.00197 µM)	0.02 (≈ 0.0393 µM)	400	> 4000	> 2	
O=C(c1cc(Cl)c(O)cc1O)C(F)(F)F [U, 2,4-Dihydroxy-5-chloro-trifluoroacetophenone]											MIC [11]: 250 µg/mL (≈ 1040 µM); MIC [12]: 1000 µg/mL (≈ 4160 µM); MIC [13]: 250 µg/mL (≈ 1040 µM); MIC [14]: 20 µg/mL (≈ 83.1 µM); MIC [15]: 20 µg/mL (≈ 83.1 µM); MIC [16]: 5 µg/mL (≈ 20.8 µM); MIC [17]: 1000 µg/mL (≈ 4160 µM); MIC [18]: 10 µg/mL (≈ 41.6 µM)
